Data published in PMC10246557, “Kinetic and inhibition studies on human Jumonji-C (JmjC) domain-containing protein 5” (RSC Chemical Biology, 2023).
Where two headings read alike, the source gives them in different places.

Legend:
[1] = tested on: human FIH; conditions: FIH 0.15 μM, cited from earlier work; for FIH (%): substrate hydroxylation with the compound as cosubstrate: absence of 2OG, 2OG derivative 330 μM, Fe(II) 50 μM, HIF-1α788–822 5.0 μM; for K m / k cat: HIF-1α788–822 substrate
[2] = biological target: T1, human JMJD5 (Homo sapiens, UniProt Q8N371); test: SPE-MS JMJD5 turnover and kinetic assay (RPS6_128–148 hydroxylation); assay type: biochemical; conditions: for JMJD5 (%): RPS6_128–148 hydroxylation with the compound as cosubstrate: absence of 2OG, JMJD5 0.15 μM, 2OG derivative 400 μM, Fe(II) 20 μM, RPS6_128–148 2.0 μM
T1 construct: made in house; host or cells: Escherichia coli BL21(DE3)
Experimental: JMJD5 turnover assays for time course and kinetic experiments were performed in 96-well polypropylene assay plates (Greiner) with either […] total reaction volume using the concentrations given in the manuscript or ESI, ^† and JMJD5-catalysed substrate hydroxylation was directly monitored using SPE-MS. […] Assay samples were aspirated under vacuum for 0.6 s and loaded onto a C4 solid phase extraction (SPE) cartridge. After loading, the C4 SPE cartridge was washed with 0.1%v/v aqueous formic acid to remove non-volatile buffer salts (5.5 s, 1.5 mL min^−1). The peptide was eluted from the SPE cartridge with 0.1%v/v aqueous formic acid in 80/20v/v acetonitrile/water into the mass spectrometer (5.5 s, 1.5 mL min^−1) and the SPE cartridge re-equilibrated with 0.1%v/v aqueous formic acid (0.5 s, 1.5 mL min^−1). The mass spectrometer was operated using the MassHunter Workstation B.08.00 software (Agilent), the mass spectrometer parameters were: capillary voltage (4000 V), nozzle voltage (1000 V), fragmentor voltage (365 V), gas temperature (280 °C), gas flow (13 L min^−1), sheath gas temperature (350 °C), sheath gas flow (12 L min^−1). […] Data were exported into Microsoft Excel and used to calculate the % conversion of the hydroxylation reaction using the equation: % conversion = 100 × (integral product peptide)/(integral substrate peptide + integral product peptide).
parameters (continues on the following two pages). Maximum velocities (vapp ) and Michaelis constants (Kapp)
of JMJD5 were determined in independent triplicates, monitoring the JMJD5-catalyzed hydroxylation of the
SPE-MS, as described (Experimental Section).
20 °C). Measurement times were normalized to the first sample injection analyzed after the addition of JMJD5 to
shown as the mean of three independent runs (n = 3; mean ± standard deviation, SD).
hexahydrate (20 μM, (NH4)2Fe(SO4)2·6H2O); and (b) hydroxylation rates used to determine kinetic parameters of
(1 picture or pasted object on this page, not shown here)
Maximum velocities (vapp ) and
Michaelis constants (Kapp) of JMJD5 were determined in independent triplicates for (1R)-3-
(carboxycarbonyl)cyclopentane-1-carboxylic acid (14), monitoring the JMJD5-catalyzed hydroxylation of the
as described (Experimental Section).
pH 7.5, 20 °C). Measurement times were normalized to the first sample injection analyzed after the addition of
(§1) Data are shown as the mean of three independent runs (n = 3; mean ± SD).
to determine kinetic parameters of JMJD5 for 14.

[3] = tested on: human AspH; conditions: absence of 2OG; AspH 0.1 μM, 2OG derivative 330 μM, Fe(II) 50 μM, hFX-CP101–119 2.0 μM; cited from earlier work
[4] = biological target: T2, human KDM4E (Homo sapiens, UniProt B2RXH2); test: KDM4E SPE-MS turnover and kinetic assay (H3 K9(me3) peptide demethylation); assay type: biochemical; conditions: for K app m / k app cat: 0.15 μM KDM4E, ARTAQTARK(me3)STGGIA 10 μM
T2 sequence (B2RXH2 1-506): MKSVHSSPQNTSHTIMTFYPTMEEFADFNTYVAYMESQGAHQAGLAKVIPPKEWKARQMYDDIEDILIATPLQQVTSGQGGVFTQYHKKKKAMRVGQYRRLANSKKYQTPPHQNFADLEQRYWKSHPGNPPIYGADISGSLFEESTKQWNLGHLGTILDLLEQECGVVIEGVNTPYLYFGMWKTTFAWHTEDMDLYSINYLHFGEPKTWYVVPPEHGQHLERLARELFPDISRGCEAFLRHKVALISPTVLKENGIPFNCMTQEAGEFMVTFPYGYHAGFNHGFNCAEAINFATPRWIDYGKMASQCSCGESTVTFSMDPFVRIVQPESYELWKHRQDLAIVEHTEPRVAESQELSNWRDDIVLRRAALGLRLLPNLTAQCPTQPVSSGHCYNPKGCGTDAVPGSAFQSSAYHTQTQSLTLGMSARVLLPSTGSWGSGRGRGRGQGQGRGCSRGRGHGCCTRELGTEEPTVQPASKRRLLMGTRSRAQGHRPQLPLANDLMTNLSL
Experimental: KDM4E turnover and inhibition assays were performed as reported using recombinant human KDM4E and a histone 3 K9(me3) derivative (i.e. […](me3)STGGIA)[41] as substrate.[95]
Supplementary Figure S3. Rates of KDM4E-catalyzed Nε-trimethyl lysine demethylations of a histone 3- […]
Maximum velocities (vapp ) and Michaelis […]
catalyzed Nε-trimethyl lysine demethylation of the histone 3 K9(me3)-derived peptide […]
(me3)STGGIA2 by SPE-MS as described;3 note that mono-, di-, and tri-demethylated product […]
buffer (50 mM MES, pH 7.0, 20 °C). Measurement times were normalized to the first sample injection analyzed […]
as §1
(a) Time course of the KDM4E-catalyzed Nε-trimethyl lysine demethylation reaction of the […]

[5] = absence of 2OG, KDM4E 0.15 μM, 2OG derivative 330 μM, Fe(II) 50 μM, ARTAQTARK(me3)STGGIA 10.0 μM

T1 sequence (Q8N371 whole entry): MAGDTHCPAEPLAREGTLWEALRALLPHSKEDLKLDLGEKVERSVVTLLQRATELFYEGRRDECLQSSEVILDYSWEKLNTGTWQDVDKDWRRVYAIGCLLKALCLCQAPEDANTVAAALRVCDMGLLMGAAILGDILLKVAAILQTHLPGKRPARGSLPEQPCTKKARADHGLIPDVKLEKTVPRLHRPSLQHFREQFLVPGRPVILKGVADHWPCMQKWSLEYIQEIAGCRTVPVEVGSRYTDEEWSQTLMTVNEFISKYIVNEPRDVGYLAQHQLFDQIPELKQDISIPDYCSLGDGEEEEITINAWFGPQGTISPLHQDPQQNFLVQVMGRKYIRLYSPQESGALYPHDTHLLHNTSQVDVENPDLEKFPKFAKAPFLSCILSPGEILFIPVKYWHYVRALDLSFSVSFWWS

KDM4E (%): substrate demethylation with the compound as cosubstrate [4, 5] | Compound | FIH (%): substrate hydroxylation with the compound as cosubstrate [1] | JMJD5 (%): RPS6_128–148 hydroxylation with the compound as cosubstrate [2] | AspH (%): substrate hydroxylation with the compound as cosubstrate [3] | further results
<1% | O=C(O)C(=O)CC(CCCc1ccccc1)C(=O)O (stereo not drawn) [C00008] | <1% | <1% | <1% | 
<1% | O=C(O)CC(Cc1ccc(OC(F)(F)F)cc1)C(=O)C(=O)O (stereo not drawn) [C00011] | <1% | <1% | <1% | 
<1% | CCC(CC(=O)C(=O)O)C(=O)O (stereo not drawn) [C00004] | ∼10% | ∼10% | <1% | 
<1% | O=C(O)C(=O)c1ccc(C(=O)O)cc1 [C00018] | <1% | <1% | ∼80% | 
<1% | CC(CC(=O)C(=O)O)C(=O)O (stereo not drawn) [C00017] | ∼45% | ∼10% | ∼10% | 
∼10% | CC(CC(=O)O)C(=O)C(=O)O (stereo not drawn) [C00003] | ∼55% | ∼10% | >95% | 
<1% | O=C(O)C(=O)C1CC[C@@H](C(=O)O)C1 (stereo partly drawn) [C00012] | ∼2% |  | ∼15% | 
∼2% | O=C(O)CC(CCCc1ccccc1)C(=O)C(=O)O (stereo not drawn) [C00009] | <1% | <1% | <1% | 
∼5% | COc1ccc(CC(CC(=O)O)C(=O)C(=O)O)cc1 (stereo not drawn) [C00013] | <1% | ∼10% | <1% | 
<1% | CCCC(CC(=O)C(=O)O)C(=O)O (stereo not drawn) [C00006] | ∼5% | ∼10% | <1% | 
<1% | CC(C)(CC(=O)C(=O)O)C(=O)O [C00002] |  |  |  | 

The next lines start with the compound.

Compound | KDM4E (%): substrate demethylation with the compound as cosubstrate [4, 5] | FIH (%): substrate hydroxylation with the compound as cosubstrate [1] | JMJD5 (%): RPS6_128–148 hydroxylation with the compound as cosubstrate [2] | AspH (%): substrate hydroxylation with the compound as cosubstrate [3] | further results
O=C(O)C(=O)CC(Cc1ccccc1)C(=O)O (stereo not drawn) [C00010] | <1% | <1% | <1% | <1% | 
O=C(O)C(=O)c1ccccc1C(=O)O [C00014] | <1% | <1% | <1% | <1% | 
O=C1O[C@H]([C@@H](O)CO)C(O)=C1O [LAA, L-ascorbic acid, reference compound] |  |  |  |  | cosubstrate/cofactor role for JMJD5 [2]: not a cosubstrate/cofactor
O=C(O)C(=O)c1ccccc1C(=O)O [Entry 26] | < 1% | < 1% | < 1% | < 1% | 
O=C(O)C(=O)C1CC[C@@H](C(=O)O)C1 (stereo partly drawn) [C00024] |  |  |  |  | K app m [4]: No reaction; k app cat [4]: No reaction
CC1(C)C(C(=O)O)C1C(=O)C(=O)O (mixture of isomers) [Entry 21] | < 1% | < 1% | < 1% | < 1% | 
O=C(O)CCC(=O)C(=O)O [C00021] |  |  |  |  | K m [1]: 0.8 ± 0.1 µM; k cat [1]: 0.04 ± 0.01 s⁻¹
O=C(O)C(=O)C1CC[C@@H](C(=O)O)C1 (stereo partly drawn) [C00022] |  |  |  |  | K m [1]: 14.8 ± 2.6 µM; k cat [1]: 0.01 ± 0.001 s⁻¹
RCCD1_134–150: RCCD1 amino acids 134–150, LPLLPCARAYVSPRAPF, JMJD5 substrate peptide [reference compound] |  |  |  |  | JMJD5-catalyzed hydroxylation of the substrate peptide ([2]; after 1 h incubation, 50 mM MOPS pH 7.5, 20 °C): < 10%
O=C(O)C(=O)c1cscc1C(=O)O [Entry 34] | < 1% | < 1% | < 1% | < 1% | 
O=C(O)CCC(=O)C(=O)O [C00001] |  | ∼50% | ∼40% |  | KDM4E (%): substrate demethylation with the compound as cosubstrate [4]: ∼70%
CC(C)(C)CCC(CC(=O)C(=O)O)C(=O)O (racemic) [Entry 17] | < 1% | < 1% | < 1% | < 1% | 
O=C(O)CCC(=O)C(=O)O [C00023] |  |  |  |  | K app m [4]: 4.2 ± 1.1 µM; k app cat [4]: 0.14 ± 0.01 s⁻¹
O=C(O)CCC(=O)C(=O)O [C00019] |  |  |  |  | K app m ([2]; 0.15 μM JMJD5, 50 mM MOPS pH 7.5, 20 °C, LAA present): 0.29 ± 0.04 µM; k app cat ([2]; 0.15 μM JMJD5, 50 mM MOPS pH 7.5, 20 °C, LAA present, calculated from vmax): 0.0056 ± 0.0002 s⁻¹
CC(C)CC(CC(=O)C(=O)O)C(=O)O (racemic) [Entry 16] | < 1% | < 1% | < 1% | < 1% | 
O=C(O)C(=O)CC(Cc1ccccc1)C(=O)O (racemic) [Entry 19] | < 1% | < 1% | < 1% | < 1% | 
